For five molecules, Ki and IC50 results are on record in publication PMC9936538, “Structure–Activity Relationship of N-Ethyl-Hexedrone Analogues: Role of the α-Carbon Side-Chain Length in the Mechanism of Action, Cytotoxicity, and Behavioral Effects in Mice” (ACS Chemical Neuroscience, 2023).

The target of test [1] is T1, hSERT (Homo sapiens, UniProt P31645).
T1 construct: expressed in transfected cells; host or cells: HEK293
The experiment in a line: Transporter binding, [3H]imipramine binding at hSERT (HEK293 membranes). How it is done: (§1) For membrane preparation, cells were harvested from 80 to 90% confluent dishes. HEK293 cells were washed with ice-cold phosphate-buffered saline (PBS), mechanically detached from the dish using a plastic scraper, and pelleted by centrifugation (400g for 10 min at 4 °C). The pellet was resuspended in HME buffer (20 mM HEPES NaOH, 1 mM EDTA, 2 mM MgCl2; pH 7.4), subjected to two freeze–thaw cycles in liquid nitrogen and homogenized through sonication at 4 °C. Membranes were then collected by centrifugation (40,000g for 30 min at 4 °C) and resuspended in an appropriate volume of HME buffer. The different membrane preparations aliquots were kept at −80 °C. Protein concentration was determined using the Bio-Rad Protein Reagent (Bio-Rad Laboratories, Hercules, CA).
(§2) Binding assays were performed as described.[6] […] This nonspecific binding also allows subtracting from the total binding values of the binding to other components such as membrane lipids or microfiber filters. Incubation was performed for 1 h at 22 °C. Binding reactions are stopped by rapid filtration of the membranes through GF/C glass microfiber filters presoaked with 0.5% polyethyleneimine and rapid washing with ice-cold wash buffer (120 mM NaCl, 2 mM MgCl2, 10 mM Tris, and 100 μM ZnCl2 for hDAT, and […], 2 mM MgCl2, and 10 mM Tris, for hSERT). Thereafter, the filters are placed into vials, a scintillation cocktail is added and trapped radioactivity is quantified by liquid scintillation counting. Specific binding of each drug to the transporter was defined as the difference between total binding (binding buffer in absence of the drug) and nonspecific binding. For each cathinone, four independent experiments carried out on duplicates were performed.
(§3) For in vitro assays, data were normalized with 100% defined as the mean of the technical replicates in the control group and expressed as mean ± SEM. Nonlinear regression was used to fit the different competition curves. Data were plotted and best fitted to a sigmoidal dose–response curve from which an IC50 or LC50 value was obtained. Transporter ratios were calculated as (1/DAT IC50: 1/SERT IC50). […] The Cheng–Prusoff equation was used to calculate Ki (affinity): Ki = EC50/(1 + [radioligand concentration/Kd]).[65] The sample size for behavioral experiments was determined using GPower software. One-way or two-way ANOVA, and subsequent Tukey’s posthoc test, conducted only if F was significant, was used to determine the effects of cathinones on cytotoxicity, HLA, OF, and CPP experiments. The α error probability was set at 0.05 (p < 0.05). The exact size group for the behavioral experiments is shown in the corresponding figure legends. All statistic calculations were carried out using GraphPad Prism (GraphPad software, San Diego, CA, USA).

For test [2], the target named is T1, hSERT. The experiment in a line: Monoamine uptake inhibition, [3H]5-HT uptake at hSERT in transfected HEK293 cells. It is filed as cell-based. On the procedure: Human embryonic kidney cells (HEK293) stably transfected with the human DAT and SERT were used for both the uptake inhibition and transporter binding assays.[6] Cells were cultured in DMEM supplemented with heat-inactivated 10% fetal bovine serum (FBS), […], and 100 U/mL penicillin at 37 °C in a 5% CO2 humidified atmosphere. Geneticin (G418; 50 μg/mL) was added to maintain the selection process. Upon approximately 80% confluence, cells were washed with 5 mL of phosphate-buffered saline (PBS) and 1 mL of trypsin/EDTA was added. After 3 min, 9 mL of DMEM was added to stop cell trypsinization. If necessary, centrifugation was performed to pellet the cells. Cells were then resuspended, counted, and seeded onto poly-D-lysine coated (24 h/prior to the experiment) 96-well plates at a density of 0.36 million cells per well for the uptake inhibition assays.
Assays were performed as previously described.[8] On the test day, the medium was removed from the cell culture 96-well plates and immediately replaced with 200 μL of Krebs-HEPES-buffer (KHB; 10 mM HEPES, 120 mM NaCl, 3 mM KCl, 2 mM CaCl2·2H2O, 2 mM MgCl2·6H2O supplemented with 20 mM D-glucose; pH 7.3). To ensure equilibrated conditions, cells were incubated with different concentrations of the drugs in KHB at a final volume of 50 μL/well for 5 min (preincubation). The preincubation solution was removed, and cells were incubated with the tritiated compounds, 0.02 μM [^3H]MPP^+ for hDAT and 0.1 μM [^3H]5-HT for hSERT, together with various concentrations of the test drugs in KHB. The uptake incubation times were 3 min for hDAT and 1 min for hSERT. The reaction was stopped by rapid removal of the incubation solution and washout with ice-cold KHB. Cells were lysed with 1% sodium dodecyl sulfate, and lysates were subsequently transferred to vials containing scintillation fluid. Radioactivity was quantified with a beta-scintillation counter (PerkinElmer, Waltham, MA, USA). The uptake in the absence of the test drugs was normalized to 100%, and the uptake in the presence of various concentrations of cathinones was expressed as a percentage thereof. […] Four independent experiments carried out on triplicates were performed.
as §3

The target in another test is T2, hDAT (Homo sapiens, UniProt Q01959).
T2 construct: expressed in transfected cells; host or cells: HEK293
T2 sequence (Q01959 whole entry): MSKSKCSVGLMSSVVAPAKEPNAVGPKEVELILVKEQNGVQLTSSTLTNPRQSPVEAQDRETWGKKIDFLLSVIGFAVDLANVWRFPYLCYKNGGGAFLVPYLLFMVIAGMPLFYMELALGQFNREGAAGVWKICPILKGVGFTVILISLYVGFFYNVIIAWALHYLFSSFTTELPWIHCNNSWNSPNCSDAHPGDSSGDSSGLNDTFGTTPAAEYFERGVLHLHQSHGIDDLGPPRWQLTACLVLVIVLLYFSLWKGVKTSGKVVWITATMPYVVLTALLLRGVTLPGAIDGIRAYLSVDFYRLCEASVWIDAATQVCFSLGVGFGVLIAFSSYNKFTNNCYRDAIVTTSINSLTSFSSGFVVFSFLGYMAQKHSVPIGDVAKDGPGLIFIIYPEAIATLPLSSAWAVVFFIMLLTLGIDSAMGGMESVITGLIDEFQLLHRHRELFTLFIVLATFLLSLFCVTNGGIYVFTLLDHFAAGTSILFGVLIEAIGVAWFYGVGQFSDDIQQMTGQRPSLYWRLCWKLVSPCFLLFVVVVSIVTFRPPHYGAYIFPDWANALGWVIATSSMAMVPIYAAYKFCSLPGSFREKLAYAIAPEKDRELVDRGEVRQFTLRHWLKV
The experiment in a line: Transporter binding, [3H]WIN 35,428 binding at hDAT (HEK293 membranes). How it is done: as §1, §2, §3

T1 sequence (P31645 whole entry): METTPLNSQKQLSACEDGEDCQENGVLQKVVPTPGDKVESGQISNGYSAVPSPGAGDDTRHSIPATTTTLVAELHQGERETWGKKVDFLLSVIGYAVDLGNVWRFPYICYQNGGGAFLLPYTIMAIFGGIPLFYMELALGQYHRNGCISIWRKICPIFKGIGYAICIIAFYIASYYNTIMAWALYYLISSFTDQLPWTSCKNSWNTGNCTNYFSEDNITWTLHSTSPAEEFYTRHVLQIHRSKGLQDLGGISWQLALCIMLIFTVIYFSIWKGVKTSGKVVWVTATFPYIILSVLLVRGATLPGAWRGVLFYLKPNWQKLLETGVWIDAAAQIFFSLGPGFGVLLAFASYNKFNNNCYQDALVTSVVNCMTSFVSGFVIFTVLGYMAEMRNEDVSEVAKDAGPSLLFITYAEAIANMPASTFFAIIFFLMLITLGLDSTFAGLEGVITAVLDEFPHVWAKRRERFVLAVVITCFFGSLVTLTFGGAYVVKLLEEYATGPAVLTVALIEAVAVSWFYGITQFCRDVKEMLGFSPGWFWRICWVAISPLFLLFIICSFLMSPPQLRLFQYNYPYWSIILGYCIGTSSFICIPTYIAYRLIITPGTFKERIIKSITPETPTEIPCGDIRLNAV

For orientation: Ki means the equilibrium dissociation constant of an inhibitor or competing ligand from its target. The low end stands for a stronger hold on the target, the high end for a looser hold on the target. A word on the IC50: it is the midpoint of a concentration-inhibition curve. A lower IC50 goes with inhibition by little substance. Regarding `CCNC(CC)C(=O)c1ccccc1` (stereo not drawn) [NEB, N-ethyl-buphedrone], the values for the Ki at hSERT [1] and at hDAT were 90.1 µM and 0.198 µM, respectively. Further, 51.2 µM corresponded to half-maximal inhibition against hSERT [2] (IC50).

Take `CCNC(C)C(=O)c1ccccc1` (stereo not drawn) [NEC, N-ethyl-cathinone]: the inhibitory constant (Ki) on hSERT [1] is greater than 100 µM; at hDAT, 2.33 µM. On hSERT [2], this molecule returned an IC50 greater than 100 µM.

With `CCCCC(NCC)C(=O)c1ccccc1` (stereo not drawn) [NEH, N-ethyl-hexedrone], the inhibition constant Ki at hSERT [1] stood at 35.9 µM; at hDAT, 0.121 µM. The IC50 at hSERT [2] was greater than 100 µM.

Regarding `CCCCCC(NCC)C(=O)c1ccccc1` (stereo not drawn) [NEHP, N-ethyl-heptedrone], the Ki at hSERT [1] stood at 40.6 µM; at hDAT, 0.107 µM. Moreover, the concentration for half-maximal inhibition (IC50) at hSERT [2] was greater than 100 µM.

Regarding `CCCC(NCC)C(=O)c1ccccc1` (stereo not drawn) [NEPD, N-ethyl-pentedrone], the inhibition constant Ki on hSERT [1] is 24.6 µM; at hDAT it was 0.042 µM. The molecule further had a half-inhibitory concentration (IC50) on hSERT [2] of 76.4 µM.
